Where a name gives a salt, the structure may show the parent alone. Read-outs that look alike come from different tables or passages of the source.
Columns and labels:
human STING = human STING (Homo sapiens, UniProt Q86WV6); experiment: Fluorescence Thermal Shift assay (binding to STING); conditions: STING 0.1 mg/mL, SyproOrange, 25 to 99° C.
Protocol: Compounds, constructs and conjugates of the present invention were tested for binding to human STING in Fluorescence Thermal Shift assay. STING was preincubated with the compounds for 20 minutes in 50 mM Hepes, 150 mM NaCl, pH 7.5 in 15 or 16 μl volume, following by adding 4 μl of SyproOrange dye dilution (ThermoFisher, cat no. S-6651). Final STING concentration was 0.1 mg/mL. Thermal unfolding was performed in Real-Time PCR QuantStudio 6 Flex System (Applied Biosystems), from 25 to 99° C., with continuous ramp mode and ramp rate 0.033° C./s. The data were analyzed using Protein Thermal Shift Software (ThermoFisher).

[1] = test system: interferon regulatory factor (IRF) pathway in THP-1 dual cells; experiment: THP-1 Dual reporter assay, IRF pathway (luciferase); type: cell-based; conditions: Homo sapiens, THP1-Dual, read-out: THP1 Dual EC50 (μM) IRF
Method in brief: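 After 18 h stimulation with STING agonist, culture medium was sampled. IRF activity was read as luminescence of ISG54/ISRE-driven luciferase right after adding reagent; NF-κB activity as absorbance at 630 or 655 nm of SEAP (IFN-β minimal promoter with NF-κB elements) after 1 or 2 h at 37° C.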

[2] = test system: NF-κB pathway in THP-1 dual cells; experiment: THP-1 Dual reporter assay, NF-κB pathway (SEAP); type: cell-based; conditions: Homo sapiens, THP1-Dual, read-out: THP1 Dual EC50 (μM) NFkB
Method in brief: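 Readouts come from THP-1 dual cell supernatant taken 18 h after STING agonist addition. SEAP activity is developed in detection medium for 1–2 h at 37° C and read at 630/655 nm; luciferase is read by luminescence immediately after reagent addition.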

[3] = 18 h stimulation, absorbance at 630 or 655 nm

Chain of human STING (Q86WV6 whole entry H232R): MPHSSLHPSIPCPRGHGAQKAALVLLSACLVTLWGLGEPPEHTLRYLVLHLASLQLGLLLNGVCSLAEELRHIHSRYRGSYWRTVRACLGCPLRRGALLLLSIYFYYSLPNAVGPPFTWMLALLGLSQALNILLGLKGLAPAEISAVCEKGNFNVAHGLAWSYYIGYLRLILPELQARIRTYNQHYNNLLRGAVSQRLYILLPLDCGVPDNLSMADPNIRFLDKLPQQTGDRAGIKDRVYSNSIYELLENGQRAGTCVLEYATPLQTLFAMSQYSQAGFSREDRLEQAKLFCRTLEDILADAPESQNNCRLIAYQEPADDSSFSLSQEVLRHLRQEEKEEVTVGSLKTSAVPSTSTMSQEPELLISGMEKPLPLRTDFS

Compound	hSTING FTS binding assay (ΔT C. °) (human STING)	EC50 ([1]; 18 h stimulation, luminescence)	EC50 [2, 3]	EC50 ([1]; 18 h)	EC50 ([2]; 18 h)
Cc1ccc(N2CCC[C@H](N(Cc3ccnc(C)c3)Cc3cn(C4CC4)c4cc(N5CC[C@@H](N)C(F)(F)C5)c(F)cc4c3=O)C2)cn1.Cl (single isomer, unassigned) [Example 56]	+++ (+++=ΔTm ≥20° C.)				
Cc1cc(CN(Cc2cn(C)c3ccccc3c2=O)[C@H]2CCCN(c3cccc(N)c3)C2)ccn1.Cl [Example 1, 3-({[(3S)-1-(3-Aminophenyl)piperidin-3-yl][(2-methylpyridin-4-yl)methyl]amino}methyl)-1-methyl-1,4-dihydroquinolin-4-one hydrochloride]	+ (+=ΔTm ≤10° C.)	1 to 10 µM	1 to 10 µM		
Cc1cc(CN(Cc2cn(C(C)C)c3cc(F)c(F)cc3c2=O)[C@H]2CCCN(c3ccc(N)nc3)C2)ccn1.Cl [Example 24, 3-({[(3)-1-(6-aminopyridin-3-yl)piperidin-3-yl][(2-methylpyridin-4-yl)methyl]amino}methyl)-6,7-difluoro-1-(propan-2-yl)-1,4-dihydroquinolin-4-one hydrochloride]	+++ (+++=ΔTm ≥20° C.)				
Cc1ccc(N2CCC[C@H](N(Cc3ccnc(C)c3)Cc3cn(C4CC4)c4cc(NC(=O)CN)c(F)cc4c3=O)C2)cn1 [Example 25, 2-amino-N-[1-cyclopropyl-6-fluoro-3-({[(3S)-1-(6-methylpyridin-3-yl)piperidin-3-yl][(2-methylpyridin-4-yl)methyl]amino}methyl)-4-oxo-1,4-dihydroquinolin-7-yl]acetamide]	+++ (+++=ΔTm ≥20° C.)				
C#CCOCCOCCOCCOCCOCCC(=O)Nc1ccc(CNC(=O)OCCOc2cc3c(cc2F)c(=O)c(CN(Cc2ccnc(C)c2)[C@H]2CCCN(c4cccnc4)C2)cn3C2CC2)cc1 [Example 84A, 2-{[1-cyclopropyl-6-fluoro-3-({[(2-methylpyridin-4-yl)methyl][(3S)-1-(pyridin-3-yl)piperidin-3-yl]amino}methyl)-4-oxo-1,4-dihydroquinolin-7-yl]oxy}ethyl N-{[4-(4,7,10,13,16-pentaoxanonadec-18-ynamido)phenyl]methyl}carbamate]		< 1 µM	< 1 µM		
Cc1cc(CN(Cc2cn(C3CC3)c3cc(N4CC[C@H](CO)C4)c(F)cc3c2=O)[C@H]2CCCN(c3cccnc3)C2)ccn1 [Example 87, 1-cyclopropyl-6-fluoro-7-[(3S)-3-(hydroxymethyl)pyrrolidin-1-yl]-3-({[(2-methylpyridin-4-yl)methyl][(3S)-1-(pyridin-3-yl)piperidin-3-yl]amino}methyl)-1,4-dihydroquinolin-4-one hydrochloride]		< 1 µM	< 1 µM		
Cc1cc(CN(Cc2cn(C3CC3)c3cc(OCCO)c(F)cc3c2=O)[C@H]2C[C@H](F)CN(c3cccnc3)C2)ccn1 [Example 89, 1-cyclopropyl-6-fluoro-3-({[(3S,5S)-5-fluoro-1-(pyridin-3-yl)piperidin-3-yl][(2-methylpyridin-4-yl)methyl]amino}methyl)-7-(2-hydroxyethoxy)-1,4-dihydroquinolin-4-one hydrochloride]		< 1 µM	< 1 µM		
Cc1cc(CN(Cc2cn(C3CC3)c3cc(OCCO)c(F)cc3c2=O)[C@H]2CCCN(c3cncc(F)c3)C2)ccn1 [Example 90, 1-cyclopropyl-6-fluoro-3-({[(3S)-1-(5-fluoropyridin-3-yl)piperidin-3-yl][(2-methylpyridin-4-yl)methyl]amino}methyl)-7-(2-hydroxyethoxy)-1,4-dihydroquinolin-4-one hydrochloride]		< 1 µM	< 1 µM		
Cc1cc(CN(Cc2cn(C3CC3)c3cc(N4CC[C@@H](CO)C4)c(F)cc3c2=O)[C@H]2CCCN(c3cnccn3)C2)ccn1 [Example 91, 1-cyclopropyl-6-fluoro-7-[(3R)-3-(hydroxymethyl)pyrrolidin-1-yl]-3-({[(2-methylpyridin-4-yl)methyl][(3S)-1-(pyrazin-2-yl)piperidin-3-yl]amino}methyl)-1,4-dihydroquinolin-4-one hydrochloride]		< 1 µM	< 1 µM		
Cc1cc(CN(Cc2cn(C3CC3)c3cc(OCCO)c(F)cc3c2=O)[C@H]2CCCN(c3ccc(N(C)C)nc3)C2)ccn1 [Example 92, 1-cyclopropyl-3-({[(3S)-1-[6-(dimethylamino)pyridin-3-yl]piperidin-3-yl][(2-methylpyridin-4-yl)methyl]amino}methyl)-6-fluoro-7-(2-hydroxyethoxy)-1,4-dihydroquinolin-4-one hydrochloride]		< 1 µM	< 1 µM		
Cc1cc(CN(Cc2cn(C3CC3)c3cc(OCCO)c(F)cc3c2=O)[C@H]2CCCN(c3cncc(C(F)(F)F)c3)C2)ccn1 [Example 93, 1-cyclopropyl-6-fluoro-7-(2-hydroxyethoxy)-3-({[(2-methylpyridin-4-yl)methyl][(3S)-1-[5-(trifluoromethyl)pyridin-3-yl]piperidin-3-yl]amino}methyl)-1,4-dihydroquinolin-4-one hydrochloride]		< 1 µM	< 1 µM		
Cc1cc(CN(Cc2cn(C3CC3)c3cc(N4CC[C@H](CO)C4)c(F)cc3c2=O)[C@H]2CCCN(c3cnccn3)C2)ccn1 [Example 94, 1-cyclopropyl-6-fluoro-7-[(3S)-3-(hydroxymethyl)pyrrolidin-1-yl]-3-({[(2-methylpyridin-4-yl)methyl][(3S)-1-(pyrazin-2-yl)piperidin-3-yl]amino}methyl)-1,4-dihydroquinolin-4-one hydrochloride]		< 1 µM	< 1 µM		
Cc1cc(CN(Cc2cn(C3CC3)c3cc(OCCO)c(F)cc3c2=O)[C@H]2C[C@H](F)CN(c3cnccn3)C2)ccn1 [Example 95, 1-cyclopropyl-6-fluoro-3-({[(3S,5S)-5-fluoro-1-(pyrazin-2-yl)piperidin-3-yl][(2-methylpyridin-4-yl)methyl]amino}methyl)-7-(2-hydroxyethoxy)-1,4-dihydroquinolin-4-one hydrochloride]		< 1 µM	< 1 µM		
Cc1cc(CN(Cc2cn(C3CC3)c3cc(OCCO)c(F)cc3c2=O)[C@H]2CCCN(c3cccnn3)C2)ccn1 [Example 96, 1-cyclopropyl-6-fluoro-7-(2-hydroxyethoxy)-3-({[(2-methylpyridin-4-yl)methyl][(3S)-1-(pyridazin-3-yl)piperidin-3-yl]amino}methyl)-1,4-dihydroquinolin-4-one]		1 to 10 µM	> 10 µM		
Cc1cc(CN(Cc2cn(C3CC3)c3cc(OCCO)c(F)cc3c2=O)[C@H]2CCCN(c3ccc(Cl)nc3)C2)ccn1 [Example 97, 3-({[(3S)-1-(6-chloropyridin-3-yl)piperidin-3-yl][(2-methylpyridin-4-yl)methyl]amino}methyl)-1-cyclopropyl-6-fluoro-7-(2-hydroxyethoxy)-1,4-dihydroquinolin-4-one hydrochloride]				< 1 µM	< 1 µM
Cc1cc(CN(Cc2cn(C3CC3)c3cc(N4CCC[C@H](O)C4)c(F)cc3c2=O)[C@H]2CCCN(c3cnccn3)C2)ccn1 [Example 98, 1-cyclopropyl-6-fluoro-7-[(3S)-3-hydroxypiperidin-1-yl]-3-({[(2-methylpyridin-4-yl)methyl][(3S)-1-(pyrazin-2-yl)piperidin-3-yl]amino}methyl)-1,4-dihydroquinolin-4-one hydrochoride]		< 1 µM	< 1 µM		
COc1cc(CN(Cc2cn(C3CC3)c3cc(F)c(F)cc3c2=O)[C@H]2CCCN(c3ccc(NC(C)=O)nc3)C2)ccn1 [Example 99, N-{5-[(3S)-3-{[(1-cyclopropyl-6,7-difluoro-4-oxo-1,4-dihydroquinolin-3-yl)methyl][(2-methoxypyridin-4-yl)methyl]amino}piperidin-1-yl]pyridin-2-yl}acetamide]		< 1 µM	< 1 µM		
Cc1cc(CN(Cc2cn(C3CC3)c3cc(OCCO)c(F)cc3c2=O)[C@H]2CCCN(c3ccc(C4CC4)nc3)C2)ccn1 [Example 100, 1-cyclopropyl-3-({[(3S)-1-(6-cyclopropylpyridin-3-yl)piperidin-3-yl][(2-methylpyridin-4-yl)methyl]amino}methyl)-6-fluoro-7-(2-hydroxyethoxy)-1,4-dihydroquinolin-4-one]		< 1 µM	< 1 µM		
Cc1cc(CN(Cc2cn(C)c3ccccc3c2=O)[C@H]2CCCN(c3ccc(OCCO)nc3)C2)ccn1 [Example 101, 3-({[(3S)-1-[6-(2-hydroxyethoxy)pyridin-3-yl]piperidin-3-yl][(2-methylpyridin-4-yl)methyl]amino}methyl)-1-methyl-1,4-dihydroquinolin-4-one]		1 to 10 µM	1 to 10 µM		
Cc1cc(CN(Cc2cn(C3CC3)c3cc(Cl)c(F)cc3c2=O)[C@H]2CCCN(c3ccc(C(=O)O)nc3)C2)ccn1 [Example 102]		1 to 10 µM	1 to 10 µM		
Cc1cc(CN(Cc2cn(C3CC3)c3cc(Cl)c(F)cc3c2=O)[C@H]2CCCN(c3ccc(C(N)=O)nc3)C2)ccn1 [Example 103, 5-[(3S)-3-{[(7-Chloro-1-cyclopropyl-6-fluoro-4-oxo-1,4-dihydroquinolin-3-yl)methyl][(2-methylpyridin-4-yl)methyl]amino}piperidin-1-yl]pyridine-2-carboxamide]		< 1 µM	< 1 µM		
